Assay results reported in ChEMBL document CHEMBL2331321, “Design, synthesis, and biological evaluation of 3-aryl-3-hydroxy-1-phenylpyrrolidine derivatives as novel androgen receptor antagonists” (Bioorg Med Chem, 2013).

Key:
[1] = AUC in mouse at 30 mg/kg, po; type: ADME, organism-based; parameters: dose 30 mg/kg, route oral; conditions: plasma
[2] = Mean residence time in mouse at 30 mg/kg, po; type: ADME, organism-based; parameters: dose 30 mg/kg, route oral; conditions: in vivo
[3] = Antitumor activity against human LNCaP-hr cells in BALB/c mouse xenograft model assessed as inhibition of tumor growth at 30 mg/kg, po bid for 28 days (reference value: 100%); type: functional
[4] = Antitumor activity against human LNCaP-hr cells in BALB/c mouse xenograft model assessed as inhibition of tumor growth at 10 mg/kg, po bid for 28 days (reference value: 100%); type: functional
[5] = Antitumor activity against human LNCaP-hr cells in BALB/c mouse xenograft model assessed as plasma prostate specific antigen level at 30 mg/kg, po bid for 28 days by ELISA (reference value: 23.8 +/- 6.1 ng/ml); type: functional
[6] = Antitumor activity against human LNCaP-hr cells in BALB/c mouse xenograft model assessed as plasma prostate specific antigen level at 10 mg/kg, po bid for 28 days by ELISA (reference value: 23.8 +/- 6.1 ng/ml); type: functional
Androgen receptor [7] = target: T1, Androgen receptor (Homo sapiens, UniProt P10275, T878A)
Description: Antagonist activity at Androgen receptor T877A mutant (unknown origin) expressed in human Cos-7 cells co-expressing pGL3-MMTV-luc vector assessed as luciferase activity by reporter gene assay

Androgen receptor [8] = target: T2, Androgen receptor (Homo sapiens, UniProt P10275)
T2 sequence (P10275 whole entry): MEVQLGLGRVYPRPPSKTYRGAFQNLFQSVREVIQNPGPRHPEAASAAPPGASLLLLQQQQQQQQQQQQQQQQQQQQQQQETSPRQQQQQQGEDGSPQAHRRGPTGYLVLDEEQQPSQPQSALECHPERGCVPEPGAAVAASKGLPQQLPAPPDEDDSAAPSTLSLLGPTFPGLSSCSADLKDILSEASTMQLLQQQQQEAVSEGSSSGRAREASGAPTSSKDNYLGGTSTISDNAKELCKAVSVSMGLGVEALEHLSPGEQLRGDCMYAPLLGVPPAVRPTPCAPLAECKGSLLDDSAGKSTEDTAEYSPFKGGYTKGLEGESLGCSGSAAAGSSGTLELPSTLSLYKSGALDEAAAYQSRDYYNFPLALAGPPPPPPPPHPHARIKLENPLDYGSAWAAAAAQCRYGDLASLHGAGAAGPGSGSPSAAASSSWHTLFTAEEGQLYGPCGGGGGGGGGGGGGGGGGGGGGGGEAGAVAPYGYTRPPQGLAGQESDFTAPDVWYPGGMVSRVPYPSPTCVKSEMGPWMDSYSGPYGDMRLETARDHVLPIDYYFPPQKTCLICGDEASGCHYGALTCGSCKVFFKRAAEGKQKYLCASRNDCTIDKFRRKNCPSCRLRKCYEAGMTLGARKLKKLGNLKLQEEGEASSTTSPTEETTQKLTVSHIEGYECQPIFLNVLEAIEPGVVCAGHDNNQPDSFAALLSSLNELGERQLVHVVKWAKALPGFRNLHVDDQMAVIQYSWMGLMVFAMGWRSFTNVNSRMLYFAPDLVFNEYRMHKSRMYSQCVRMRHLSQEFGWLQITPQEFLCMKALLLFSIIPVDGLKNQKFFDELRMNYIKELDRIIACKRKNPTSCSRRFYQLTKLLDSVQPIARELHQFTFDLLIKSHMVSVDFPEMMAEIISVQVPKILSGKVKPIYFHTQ
Description: Antagonist activity at wild type Androgen receptor (unknown origin) expressed in human Cos-7 cells co-expressing pGL3-MMTV-luc vector assessed as luciferase activity by reporter gene assay

Androgen receptor [9] = target: T1, Androgen receptor; remark: listed apart in the source
Description: Inhibition of Androgen receptor T877A mutant (unknown origin) expressed in Freestyle293F cells

Androgen receptor [10] = target: T2, Androgen receptor; remark: listed apart in the source
Description: Inhibition of wild type Androgen receptor (unknown origin) expressed in Freestyle293F cells

Androgen receptor [11] = target: T1, Androgen receptor; remark: listed apart in the source
Description: Agonist activity at Androgen receptor T877A mutant in human LNCaP-hr cells assessed as prostate specific antigen secretion measured after 3 days by enzyme-immunoassay

Androgen receptor [12] = target: T2, Androgen receptor; remark: listed apart in the source
Description: Agonist activity at wild type Androgen receptor in human LNCaP-hr cells assessed as prostate specific antigen secretion measured after 3 days by enzyme-immunoassay

[13] = Half life in mouse plasma; type: ADME, cell-free
[14] = Antitumor activity against human LNCaP-hr cells in BALB/c mouse xenograft model assessed as inhibition of tumor growth at 100 mg/kg, po qd for 28 days (reference value: 100%); type: functional
[15] = Antitumor activity against human LNCaP-hr cells in BALB/c mouse xenograft model assessed as plasma prostate specific antigen level at 100 mg/kg, po qd for 28 days by ELISA (reference value: 23.8 +/- 6.1 ng/ml); type: functional

T1 sequence (P10275 whole entry T878A): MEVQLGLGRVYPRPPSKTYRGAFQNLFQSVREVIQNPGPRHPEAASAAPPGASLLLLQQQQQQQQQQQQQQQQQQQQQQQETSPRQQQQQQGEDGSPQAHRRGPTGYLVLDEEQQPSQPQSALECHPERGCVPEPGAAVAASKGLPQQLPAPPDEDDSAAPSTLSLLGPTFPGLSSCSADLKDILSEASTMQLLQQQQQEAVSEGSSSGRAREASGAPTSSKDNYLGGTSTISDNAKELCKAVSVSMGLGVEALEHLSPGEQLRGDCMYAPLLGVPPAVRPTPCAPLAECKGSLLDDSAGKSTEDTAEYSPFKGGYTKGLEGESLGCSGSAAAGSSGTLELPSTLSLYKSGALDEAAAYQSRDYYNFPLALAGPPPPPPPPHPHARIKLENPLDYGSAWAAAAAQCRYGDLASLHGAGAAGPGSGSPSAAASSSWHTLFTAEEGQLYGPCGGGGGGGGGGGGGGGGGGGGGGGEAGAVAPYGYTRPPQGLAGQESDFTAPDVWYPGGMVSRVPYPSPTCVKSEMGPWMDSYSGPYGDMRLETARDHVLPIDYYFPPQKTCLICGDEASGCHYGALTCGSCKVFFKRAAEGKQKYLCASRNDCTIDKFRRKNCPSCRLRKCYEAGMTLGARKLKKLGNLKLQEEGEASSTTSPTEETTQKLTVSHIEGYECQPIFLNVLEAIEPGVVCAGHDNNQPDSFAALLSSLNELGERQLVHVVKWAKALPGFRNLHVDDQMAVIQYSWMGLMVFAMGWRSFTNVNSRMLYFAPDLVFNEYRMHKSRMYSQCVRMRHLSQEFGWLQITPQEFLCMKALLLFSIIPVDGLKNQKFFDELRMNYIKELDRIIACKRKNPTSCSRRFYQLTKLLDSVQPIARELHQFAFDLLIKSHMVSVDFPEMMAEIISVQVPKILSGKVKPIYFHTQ

Structure (SMILES) | IC50 (Androgen receptor [7]) [nM] | IC50 (Androgen receptor [8]) [nM] | IC50 (Androgen receptor [9]) [nM] | IC50 (Androgen receptor [10]) [nM] | EC50 (Androgen receptor [11]) [nM] | EC50 (Androgen receptor [12]) [nM] | other results
CNC(=O)c1ccc([C@]2(O)CCN(c3ccc(C#N)c(F)c3)[C@H]2C)cn1 | 1700 | 290 | 1700 | 830 | – | – | AUC [1]: 232 µg·h/mL; MRT [2]: 4.07 h; T/C [3]: 18%; T/C [4]: 139%; Activity [5]: 4.3 ng/mL; Activity [6]: 33 ng/mL
CNC(=O)c1ccc([C@]2(O)CCN(c3ccc(C#N)c(OC)c3)[C@H]2C)cn1 | 730 | 62 | 240 | 120 | – | – | –
N#Cc1ccc(N2CCC(O)(c3ccccc3)C2)cc1Cl (racemic) | 250 | 380 | 130 | 370 | > 10000 | > 10000 | –
C[C@@H]1N(c2ccc(C#N)c(Cl)c2)CC[C@@]1(O)c1ccc(C(=O)N(C)C)nc1 | 10000 | 1700 | 3000 | 1100 | > 10000 | > 10000 | –
C[C@@H]1N(c2ccc(C#N)c(Cl)c2)CC[C@@]1(O)c1ccc(C(N)=O)cc1 | 9 | 17 | 42 | 27 | 10000 | > 10000 | –
CNC(=O)c1ccc([C@@]2(O)CCN(c3ccc(C#N)c(Cl)c3)[C@@H]2C)cn1 | 1600 | 6400 | 97 | 1600 | > 10000 | > 10000 | –
CNC(=O)c1ccc([C@]2(O)CCN(c3ccc(C#N)c(Cl)c3)[C@H]2C)cc1 | 10 | 8.6 | 18 | 32 | 10000 | > 10000 | –
CNC(=O)c1ccc([C@]2(O)CCN(c3ccc(C#N)c(Cl)c3)[C@H]2C)cn1 | 99 | 25 | 100 | 44 | > 10000 | > 10000 | –
N#Cc1ccc(N2CCC(O)(Cc3ccccc3)C2)cc1Cl (configuration not stated) | 450 | 1000 | 59 | 420 | 4800 | > 10000 | –
C[C@](O)(CS(=O)(=O)c1ccc(F)cc1)C(=O)Nc1ccc(C#N)c(C(F)(F)F)c1 [(R)-BICALUTAMIDE] | – | – | – | – | – | – | half-life [13]: 101 h
C[C@@H]1N(c2ccc(C#N)c(Cl)c2)CC[C@@]1(O)c1ccc(F)cc1 | > 10000 | 17 | 8.1 | 8 | 20 | > 10000 | –
CNC(=O)c1ccc([C@]2(O)CCN(c3ccc(C#N)cc3)[C@H]2C)cn1 | 1400 | 400 | 5300 | 7600 | – | – | –
CNC(=O)c1ccc([C@]2(O)CCN(c3ccc(C#N)c(Cl)c3)[C@H]2C)nc1 | 100 | 120 | 16 | 68 | 5100 | > 10000 | –
C[C@@](O)(CS(=O)(=O)c1ccc(F)cc1)C(=O)Nc1ccc(C#N)c(C(F)(F)F)c1 [(S)-BICALUTAMIDE] | – | – | – | – | – | – | half-life [13]: 19 h
CC(O)(CS(=O)(=O)c1ccc(F)cc1)C(=O)Nc1ccc(C#N)c(C(F)(F)F)c1 (configuration not stated) [BICALUTAMIDE] | – | – | – | – | – | – | T/C [14]: 191%; Activity [15]: 45.6 ng/mL
N#Cc1ccc(N2CCC(O)(c3ccc(F)cc3)C2)cc1Cl (racemic) | 65 | 68 | 36 | 180 | > 10000 | > 10000 | –
C[C@@H]1N(c2ccc(C#N)c(Cl)c2)CC[C@@]1(O)c1ccc(N2CCCC2=O)nc1 | 160 | 11 | 87 | 13 | – | – | –
N#Cc1ccc(N2CCC(O)C2)cc1Cl (configuration not stated) | > 10000 | 82 | 30 | 120 | 640 | 4700 | –
